Columns and labels:
Format in all cases: in vivo
mice [1] = experiment: behavioural response (paw licking) after subcutaneous formaline in mice; settings: 1% formaline s.c. 20 µl, 5 µl, 0.01% (0.5 µg) of guanfacine i.th. 15 minutes before, ± S.E.M., 10 animals
Experimental: Behavioural response in mice after subcutaneous injection of 20 µl of a physiological solution of sodium chloride or a 1 % solution of formaline on the dorsum of either hind paw.
5 µl, 0.01% ([…]) of guanfacine or the same volume of a physiological solution of sodium chloride were injected intrathetecally 15 minutes before the subcutaneous injection of formaline. The accumulated reaction, i.e. the total time of licking on the injected paw, was measured during the 5 minutes after the injection of formaline.
The results are expressed as mean accumulated response during 5 minutes in seconds ± S.E.M. Each group consisted of 10 animals.

mice [2] = experiment: tail-flick test after intrathecal injection in mice; parameters: unit not given here; settings: 15 minutes after intrathecal injection of 5 µl, mean ± S.E.M.
Experimental: (§1) Antinociceptive effects in mice were established in the following test. The effect 15 minutes after intrathecal injection of a volume of 5 µl containing different doses of guanfacine was established. The vehicle used was a physiological solution of sodium chloride.

male Sprague-Dawley rats [3] = experiment: tail-flick test after intrathecal injection in rats; parameters: unit not given here; settings: rat, mean ± S.E.M.
Experimental: (§2) The antinociceptive effect of guanfacine may be established by the hot plate and tail-flick test.
(§3) Testing of tail-flick was performed using an IITC Inc. Mod. 33 Analgesia- meter@, with the light focused on the tip of the tail (d'Amour, F.E. and Smith, D.L. J. Pharmacol. Exp. Ther. 72, 74, 1941). The intensity of the beam was adjusted to give a reaction time of 3-4 sec. before intrathecal injection of the drug solutions. For the hot plate testing, a modification of the Eddy and Leimbach method (Eddy, N.B. and Leimbach, D. J. Pharmacol. Exp. Ther. 107, 385, 1952) was used. An IITC Inc. Mod. 35-D Analgesiameter® was set at a temperature of 58^±0.2°C. The criteria for a pain response was licking of either of the hindpaws.
(§4) We examined the pain responsiveness of male Sprague-Dawley rats in a weight range of 300-350 g. […] The catheter was fixed at a surgical operation. The animals were kept in the animal colony in separate cages until testing took place 1 week after operation. The drug was administered in a volume of 15 µl, and testing of hot plate and tail-flick reaction latencies took place at the intervals given in the tables. Animals given the combination of guanfacine and bupivacaine were not tested until the local anaesthetic effect of bupivacaine had disappeared, which normally took between 10 and 15 minutes.
(§5) Guanfacine or a physiologically acceptable salt thereof was administered alone or in combination with the local anaesthetic agent bupivacaine or a physiologically acceptable salt thereof. When guanfacine'was administered together with bupivacaine first an initial phase of regional anaesthesia restricted to the hind-legs and the lower derma- tomes was obtained. When this effect had disappeared the animals were still non-responsive in the hot plate and tail-flick test for up to at least 7 hours after the injection, cf Table 2 below.

male Sprague-Dawley rats [4] = experiment: hot plate test after intrathecal injection in rats; parameters: unit not given here; settings: rat, mean ± S.E.M.
Experimental: as §2, §3, §4, §5

mice [5] = experiment: hot-plate test after intrathecal injection in mice; parameters: unit not given here; settings: 15 minutes after intrathecal injection of 5 µl, mean ± S.E.M.
Experimental: as §1

[6] = 0.001 % guanfacine, dose 0.05 µg
[7] = 0.002 % guanfacine, dose 0.1 µg
[8] = 0.004 % guanfacine, dose 0.2 µg
[9] = 0.006 % guanfacine, dose 0.3 µg
[10] = intrathecal 75 µg guanfacine (15 µl 0.5 %), 1 min, 100x(test-latency - pre-drug latency)/pre-drug latency, n=4
[11] = intrathecal 75 µg guanfacine, 5 min
[12] = intrathecal 75 µg guanfacine, 10 min
[13] = intrathecal 75 µg guanfacine, 20 min
[14] = intrathecal 75 µg guanfacine, 30 min
[15] = intrathecal 75 µg guanfacine, 45 min
[16] = intrathecal 75 µg guanfacine, 8 hours
[17] = intrathecal 75 µg guanfacine, 22 hours

N=C(N)NC(=O)Cc1c(Cl)cccc1Cl [guanfacine, 2,6-dichlorophenyl-acetyl-guanidine]
mean accumulated response (total time of licking on the injected paw) during 5 minutes (mice [1]): 9 ± 2 s
Antinociception tail-flick (cut-off=10 sec) (mice [2]; [6]): 29±23
Antinociception tail-flick (cut-off=10 sec) (mice [2]; [7]): 26±13
Antinociception tail-flick (cut-off=10 sec) (mice [2]; [8]): 59±17
Antinociception tail-flick (cut-off=10 sec) (mice [2]; [9]): 86±18
Antinociception tail-flick (cut-off=10 sec.) (male Sprague-Dawley rats [3]; [10]): 27.5±17
Antinociception tail-flick (cut-off=10 sec.) (male Sprague-Dawley rats [3]; [11]): 92.75±26
Antinociception tail-flick (cut-off=10 sec.) (male Sprague-Dawley rats [3]; [12]): 110±33
Antinociception tail-flick (cut-off=10 sec.) (male Sprague-Dawley rats [3]; [13]): 147±13
Antinociception tail-flick (cut-off=10 sec.) (male Sprague-Dawley rats [3]; [14]): 153±10
Antinociception tail-flick (cut-off=10 sec.) (male Sprague-Dawley rats [3]; [15]): 156±8
Antinociception tail-flick (cut-off=10 sec.) (male Sprague-Dawley rats [3]; [16]): 138±20
Antinociception tail-flick (cut-off=10 sec.) (male Sprague-Dawley rats [3]; [17]): 62±8
Antinociception hot plate (cut-off=30 sec.) (male Sprague-Dawley rats [4]; [10]): -15±12
Antinociception hot plate (cut-off=30 sec.) (male Sprague-Dawley rats [4]; [11]): -15±6
Antinociception hot plate (cut-off=30 sec.) (male Sprague-Dawley rats [4]; [12]): 29±18
Antinociception hot plate (cut-off=30 sec.) (male Sprague-Dawley rats [4]; [13]): 62±29
Antinociception hot plate (cut-off=30 sec.) (male Sprague-Dawley rats [4]; [14]): 116±36
Antinociception hot plate (cut-off=30 sec.) (male Sprague-Dawley rats [4]; [15]): 239±23
Antinociception hot plate (cut-off=30 sec.) (male Sprague-Dawley rats [4]; [16]): 124±56
Antinociception hot plate (cut-off=30 sec.) (male Sprague-Dawley rats [4]; [17]): 41±12
Antinociception hot plate (cut-off=30 sec.) (male Sprague-Dawley rats [4]; intrathecal 75 µg guanfacine, 27 hours): 25±16
Antinociception hot-plate (cut-off=30 sec) (mice [5]; [6]): 128±29
Antinociception hot-plate (cut-off=30 sec) (mice [5]; [7]): 152±33
Antinociception hot-plate (cut-off=30 sec) (mice [5]; [8]): 152±47
Antinociception hot-plate (cut-off=30 sec) (mice [5]; [9]): 168±40

Reference: patent EP0164320A1, “Pharmaceutical preparations for spinal analgesia containing guanfacine, and method for their preparation” (priority 1984, dated 1985)
